According to ChEMBL document CHEMBL1131120, “The frontier orbital phase angles: novel QSAR descriptors for benzene derivatives, applied to phenylalkylamine hallucinogens” (1998):

Organism: Homo sapiens
Experiment: Compound tested for hallucinogenic activity in humans was reported; Value reported in (A)= Mescaline units
Type: functional

Which Activity does the source give for `COc1cc(SC(C)(C)C)c(OC)cc1CCN` here?
Its Activity is 4.

`COc1cc(CC(C)N)cc(OC)c1OC` (stereo not given) was tested. Which Activity did it give?
The Activity was 2.

Which Activity does the source give for `CCCc1cc(OC)c(CC(C)N)cc1OC` (stereo not given) here?
The Activity was 80.

`COc1cc(CC(C)N)c(OC)c(OC)c1` (stereo not given) was tested. Which Activity did it give?
The Activity was 4.

Which Activity does the source give for `CCSc1c(OC)cc(CCN)cc1OC` here?
The Activity was 12.

`CCSc1cc(OC)c(CCNO)cc1OC` was tested. Which Activity did it give?
The Activity was 22.

Which Activity does the source give for `COc1cc(CCN)c(OC)cc1Cl` here?
Its Activity is 10.

For `CC(Cc1ccc2c(c1)OCO2)NO` (stereo not given), which Activity is on record?
Its Activity is 2.3.

Which Activity does the source give for `COc1cc(CC(C)N)cc2c1OCO2` (stereo not given) here?
The Activity was 2.

`COc1ccc(CC(C)N)cc1` (stereo not given) [PARA-METHOXYAMPHETAMINE] was tested. Which Activity did it give?
The Activity was 5.

Which Activity does the source give for `CCOc1cc(CCN)cc(OC)c1OCC` here?
Its Activity is 1.3.

With `COc1cc(CCN)c(OC)cc1I` as the molecule, how does the Activity read?
The Activity was 17.

`COc1cc(SC)c(OC)cc1CCN` was tested. Which Activity did it give?
The Activity was 4.

How did the Activity turn out when `CCOc1c(OC)cc(CCN)cc1SC` was run?
Its Activity is 4.

`COc1cc(C2CC2N)c(OC)cc1C` (stereo not given) was tested. Which Activity did it give?
Its Activity is 17.

With `COc1cc(OC)c(OC)cc1CC(C)N` (stereo not given) as the molecule, how does the Activity read?
Its Activity is 10.

How did the Activity turn out when `CCC(C)Sc1cc(OC)c(CCNO)cc1OC` (stereo not given) was run?
Its Activity is 3.

With `COc1cc(CCN)cc(OC)c1OCC1CC1` as the molecule, how does the Activity read?
The Activity was 4.

For `CCOc1cc(CCN)cc(OC)c1OC`, which Activity is on record?
The Activity was 1.

For `COc1cc(CC(C)N)c(OC)c(OC)c1OC` (stereo not given), which Activity is on record?
The Activity was 6.

Which Activity does the source give for `CCOc1cc(CCN)cc(SC)c1OCC` here?
Its Activity is 2.

`COc1cc(CCN)c(OC)c(C)c1C` was tested. Which Activity did it give?
The Activity was 11.

`COc1cc(CCN)cc(SC)c1OC` was tested. Which Activity did it give?
The Activity was 4.

How did the Activity turn out when `CCc1cc(OC)c(CC(C)N)cc1OC` (stereo not given) was run?
The Activity was 75.

For `CCOc1c(OC)cc(CC(C)N)cc1OC` (stereo not given), which Activity is on record?
The Activity was 7.

`COc1cc(SCC2CC2)c(OC)cc1CCN` was tested. Which Activity did it give?
The Activity was 7.

How did the Activity turn out when `CCc1cc(OC)c(CC(C)N)cc1SC` (stereo not given) was run?
The Activity was 15.

For `COc1cc(CC(C)N)c(OC)c2c1CCC2` (stereo not given), which Activity is on record?
Its Activity is 20.

`CCCOc1c(OC)cc(CCN)cc1OC` was tested. Which Activity did it give?
The Activity was 7.

Which Activity does the source give for `COc1cc(CC(C)N)c(OC)cc1CCF` (stereo not given) here?
The Activity was 110.

With `COc1cc(CC(C)N)c(OC)c2c1OCO2` (stereo not given) as the molecule, how does the Activity read?
The Activity was 6.

How did the Activity turn out when `CC(C)(N)Cc1ccc2c(c1)OCO2` was run?
Its Activity is 1.5.

For `C=CCOc1c(OC)cc(CC(C)N)cc1OC` (stereo not given), which Activity is on record?
The Activity was 11.

For `COc1cc(CCN)c(OC)cc1Br`, which Activity is on record?
Its Activity is 16.

With `COc1cc(CC(C)N)c(SC)cc1C` (stereo not given) as the molecule, how does the Activity read?
Its Activity is 4.

With `CCc1cc(OC)c(CCN)cc1OC` as the molecule, how does the Activity read?
The Activity was 18.

With `COc1cc(CCN)c(OC)cc1C` as the molecule, how does the Activity read?
The Activity was 8.

With `CC(N)Cc1ccc2c(c1)OCO2` (stereo not given) [TENAMFETAMINE] as the molecule, how does the Activity read?
The Activity was 3.

With `CCOc1cc(OC)c(CC(C)N)cc1OC` (stereo not given) as the molecule, how does the Activity read?
The Activity was 9.

With `COc1cc(CCN)c(OC)c2ccccc12` as the molecule, how does the Activity read?
Its Activity is 10.

How did the Activity turn out when `CCCc1cc(OC)c(CCN)cc1OC` was run?
Its Activity is 37.

For `CCNC(C)Cc1ccc2c(c1)OCO2` (stereo not given), which Activity is on record?
The Activity was 2.

`CCSc1cc(OC)c(CCN)cc1OC` was tested. Which Activity did it give?
Its Activity is 16.

`CCSc1cc(OC)c(CC(C)N)cc1OC` (stereo not given) was tested. Which Activity did it give?
The Activity was 50.

For `COc1cc(CCN)cc(OC)c1C`, which Activity is on record?
Its Activity is 4.

Which Activity does the source give for `COc1cc(CC(C)N)c(OC)cc1C` (stereo not given) [DOM] here?
Its Activity is 50.

With `CCOc1cc(CCN)cc(OC)c1SC` as the molecule, how does the Activity read?
Its Activity is 4.

How did the Activity turn out when `CCC(N)Cc1ccc2c(c1)OCO2` (stereo not given) was run?
Its Activity is 1.5.

`COc1ccc(OC)c(CC(C)N)c1` (stereo not given) was tested. Which Activity did it give?
Its Activity is 2.5.

`COc1cc(SC(C)C)c(OC)cc1CC(C)N` (stereo not given) was tested. Which Activity did it give?
The Activity was 32.

`COc1cc(CCN)cc(OC)c1SC` was tested. Which Activity did it give?
Its Activity is 10.

`COc1cc(CCN)c(OC)c2c1CCC2` was tested. Which Activity did it give?
The Activity was 14.

Which Activity does the source give for `COc1cc(CCN)cc(OC)c1OC(C)C` here?
Its Activity is 5.

With `CCOc1cc(CCN)cc(OC)c1SCC` as the molecule, how does the Activity read?
Its Activity is 4.

For `COc1cc(SC)c(OC)cc1CC(C)N` (stereo not given), which Activity is on record?
The Activity was 40.

With `COc1cc(CC(C)N)cc(OC)c1OCc1ccccc1` (stereo not given) as the molecule, how does the Activity read?
The Activity was 3.

`COc1cc(CC(C)N)c(OC)cc1Br` (stereo not given) [BROLAMFETAMINE] was tested. Which Activity did it give?
The Activity was 150.

For `COc1cc(CCN)cc(OC)c1OC` [MESCALINE], which Activity is on record?
Its Activity is 1.

How did the Activity turn out when `COc1c(CC(C)N)ccc2c1OCO2` (stereo not given) was run?
Its Activity is 6.

With `COc1cc(OC)c(CC(C)N)cc1Br` (stereo not given) as the molecule, how does the Activity read?
Its Activity is 4.

For `COc1cc(CC(C)N)c(OC)cc1Cl` (stereo not given), which Activity is on record?
The Activity was 133.

Which Activity does the source give for `CCCSc1cc(OC)c(CCN)cc1OC` here?
Its Activity is 15.

`COc1ccc(OC)c(OC)c1CC(C)N` (stereo not given) was tested. Which Activity did it give?
The Activity was 10.

With `COc1cc(C)cc(OC)c1CC(C)N` (stereo not given) as the molecule, how does the Activity read?
The Activity was 15.

`COc1cc(SC(C)C)c(OC)cc1CCN` was tested. Which Activity did it give?
The Activity was 21.

How did the Activity turn out when `COc1cc(CC(C)N)c(OC)c(C)c1C` (stereo not given) was run?
The Activity was 12.

For `CCC(Cc1ccc2c(c1)OCO2)NC` (stereo not given), which Activity is on record?
The Activity was 1.5.

How did the Activity turn out when `COc1cc(OC)c(CC(C)N)c(OC)c1` (stereo not given) was run?
The Activity was 10.

`CCCSc1cc(OC)c(CCNO)cc1OC` was tested. Which Activity did it give?
Its Activity is 15.

With `CCCCSc1c(OC)cc(CCN)cc1OC` as the molecule, how does the Activity read?
Its Activity is 3.

Which Activity does the source give for `COc1cc(CC(C)N)cc(OC)c1Br` (stereo not given) here?
The Activity was 43.

With `COc1cc(CC(C)N)c(OC)cc1I` (stereo not given) as the molecule, how does the Activity read?
The Activity was 133.

With `CCOc1c(OC)cc(CCN)cc1SCC` as the molecule, how does the Activity read?
Its Activity is 2.

`CCSc1cc(CCN)cc(OC)c1OC` was tested. Which Activity did it give?
The Activity was 4.

For `CCCSc1cc(OC)c(CC(C)N)cc1OC` (stereo not given), which Activity is on record?
Its Activity is 55.

For `COc1cc([N+](=O)[O-])c(OC)cc1CC(C)N` (stereo not given), which Activity is on record?
The Activity was 80.

With `COCCSc1cc(OC)c(CCN)cc1OC` as the molecule, how does the Activity read?
The Activity was 9.

`COc1cc(SCCF)c(OC)cc1CCN` was tested. Which Activity did it give?
Its Activity is 29.

Which Activity does the source give for `COc1cc2c(cc1CC(C)N)OCO2` (stereo not given) here?
The Activity was 8.

With `CCCSc1c(OC)cc(CCN)cc1OC` as the molecule, how does the Activity read?
The Activity was 16.

`COc1cc(C)c(SC)cc1CC(C)N` (stereo not given) was tested. Which Activity did it give?
The Activity was 7.

For `C=C(C)COc1c(OC)cc(CCN)cc1OC`, which Activity is on record?
The Activity was 6.

`CCOc1c(OC)cc(CCN)cc1OC` was tested. Which Activity did it give?
Its Activity is 6.

`CCC(C)Sc1cc(OC)c(CCN)cc1OC` (stereo not given) was tested. Which Activity did it give?
Its Activity is 4.

With `COc1cc(CCN)c(OC)c2c1C1CCC2C1` (stereo not given) as the molecule, how does the Activity read?
The Activity was 22.
